Biological target: T1, human pancreas Glucokinase (GK) (Homo sapiens, UniProt P35557)
T1 construct: His6; made in house; host or cells: Escherichia coli
T1 sequence (P35557 1-465): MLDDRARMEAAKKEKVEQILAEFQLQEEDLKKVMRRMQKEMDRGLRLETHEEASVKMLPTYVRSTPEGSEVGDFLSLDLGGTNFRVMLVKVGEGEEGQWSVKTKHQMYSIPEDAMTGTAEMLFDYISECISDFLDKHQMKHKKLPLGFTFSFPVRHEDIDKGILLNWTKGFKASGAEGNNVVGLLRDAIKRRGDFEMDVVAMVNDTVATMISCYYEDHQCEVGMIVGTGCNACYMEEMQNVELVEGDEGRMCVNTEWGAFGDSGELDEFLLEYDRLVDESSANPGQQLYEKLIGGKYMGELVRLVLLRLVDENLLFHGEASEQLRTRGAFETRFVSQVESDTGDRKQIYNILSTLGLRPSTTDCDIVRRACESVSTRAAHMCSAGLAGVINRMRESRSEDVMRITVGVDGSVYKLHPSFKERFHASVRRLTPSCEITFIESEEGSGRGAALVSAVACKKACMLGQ
Experiment: Glucokinase enzyme assay, pancreas GK
Assay type: biochemical
Conditions: for activation at 50 µM: increase in GK activity above vehicle control, compound 50 μM, 12 mM glucose; for EC50: concentration that produces 50% activation above vehicle control; for EC100%: concentration that produces 100% activation above vehicle control
Description: An enzymatic Glucokinase (GK) assay using purified recombinant human liver/pancreas enzyme was used to evaluate the effects of potential small molecule modulators.
In this assay, GK catalyzes glucose phosphorylation in the presence of ATP. The product of this reaction, glucose-6-phosphate, was then oxidized by an excess of glucose-6-phosphate dehydrogenase to produce gluconate-6-phosphate with concomitant reduction of nicotinamide adenine dinucleotide (NAD). […] Human GK (Liver/Pancreas) was expressed in Escherichia coli as a (His) 6-tagged fusion protein and was purified by metal chelate affinity chromatography. The assay was performed in a final incubation volume of 80 μl in a 96-well clear low UV absorption plates. The incubation mixture consisted of 25 mM HEPES, 2 mM MgSO4, 1 mM dithiothreotol (DTT), 1 mg/mL bovine serum albumin (BSA), 1 mM ATP, 1 mM NAD, and 12 mM glucose, 10 units per mL glucose-6-phosphate dehydrogenase, and +/−300 ng per mL GK. For determination of the affinity (Km) and Vmax, different concentrations of glucose ranging from 0.5 mM to 40 mM were used in the assay; see Grimsby, J., Sarabu, R.; Grippo, J. F.; et. al. Science 2003, 301, 370-373. […] EC50% (μM) was calculated as the effective concentration of the compound that produces 50% activation above the vehicle control, and EC100% (μM) was calculated as the effective concentration of the compound that produces 100% activation above the vehicle control.

| Compound | activation at 50 µM [%] | EC50 [nM] | EC100% [µM] |
| --- | --- | --- | --- |
| O=C(CC1c2ccccc2C(=O)N1Cc1ccc(F)cc1)Nc1ccc(C(=O)O)cn1 (stereo not drawn) [Compound 6, 6-{2-[2-(4-Fluoro-benzyl)-3-oxo-2,3-dihydro-1H-isoindol-1-yl]-acetylamino}-nicotinic acid] | 7.92 |  |  |
| O=C(CCC1c2ccccc2C(=O)N1Cc1ccc(F)cc1)Nc1ccc(C(=O)O)cn1 (stereo not drawn) [Compound 7, 6-{3-[2-(4-Fluoro-benzyl)-3-oxo-2,3-dihydro-1H-isoindol-1-yl]-propionylamino}-nicotinic acid] | 153 | 3900 | 15 |
| COc1ccc(CN2C(=O)c3ccccc3C2CCC(=O)Nc2ccc(C(=O)O)cn2)cc1 (stereo not drawn) [Compound 8, 6-{3-[2-(4-Methoxy-benzyl)-3-oxo-2,3-dihydro-1H-isoindol-1-yl]-propionylamino}-nicotinic acid] | 167 | 3200 | 11 |
| COC(=O)c1ccc(NC(=O)CCC2c3ccccc3C(=O)N2Cc2ccc(OC)cc2)nc1 (stereo not drawn) [Compound 9, 6-{3-[2-(4-Methoxy-benzyl)-3-oxo-2,3-dihydro-1H-isoindol-1-yl]-propionylamino}-nicotinic acid methyl ester] | 172 | 400 | 1.7 |
| COc1ccc(CN2C(=O)c3ccccc3C2CCS(=O)(=O)Nc2nccs2)cc1 (stereo not drawn) [Compound 10, 2-[2-(4-Methoxy-benzyl)-3-oxo-2,3-dihydro-1H-isoindol-1-yl]-ethanesulfonic acid thiazol-2-ylamide] | 15.8 |  |  |
| O=C(CCC1c2c(F)cccc2C(=O)N1Cc1ccc(F)cc1)Nc1ccc(C(=O)O)cn1 (stereo not drawn) [Compound 11, 6-{3-[7-Fluoro-2-(4-fluoro-benzyl)-3-oxo-2,3-dihydro-1H-isoindol-1-yl]-propionylamino}-nicotinic acid] | 229 | 67 | 0.128 |
| O=C(CCC1c2c(F)cccc2C(=O)N1Cc1ccc(F)cc1)Nc1ccccn1 (stereo not drawn) [Compound 12, 3-[7-Fluoro-2-(4-fluoro-benzyl)-3-oxo-2,3-dihydro-1H-isoindol-1-yl]-N-pyridin-2-vi-propionamide] | 179 | 94 | 0.74 |
| O=C(CCC1c2c(F)cccc2C(=O)N1Cc1ccc(F)cc1)Nc1cnccn1 (stereo not drawn) [Compound 13, 3-[7-Fluoro-2-(4-fluoro-benzyl)-3-oxo-2,3-dihydro-1H-isoindol-1-yl]-N-pyrazin-2-yl-propionamide] | 272 | 240 | 0.88 |
| O=C(CCC1c2c(F)cccc2C(=O)N1Cc1ccc(F)cc1)Nc1ccc(F)cn1 (stereo not drawn) [Compound 14, 3-[7-Fluoro-2-(4-fluoro-benzyl)-3-oxo-2,3-dihydro-1H-isoindol-1-yl]-N-(5-fluoro-pyridin-2-yl)-propionamide] | 219 | 108 | 0.699 |
| O=C(CCC1c2cccc(F)c2C(=O)N1Cc1ccc(F)cc1)Nc1ccc(C(=O)O)cn1 (stereo not drawn) [Compound 15, 6-{3-[4-Fluoro-2-(4-fluoro-benzyl)-3-oxo-2,3-dihydro-1H-isoindol-1-yl]-propionylamino}-nicotinic acid] | 188 | 530 | 3.4 |
| O=C(Nc1ccccn1)OCCC1c2c(F)cccc2C(=O)N1Cc1ccc(F)cc1 (stereo not drawn) [Compound 16, Pyridin-2-yl-carbamic acid 2-[7-fluoro-2-(4-fluoro-benzyl)-3-oxo-2,3-dihydro-1H-isoindol-1-yl]-ethyl ester] | 13.8 |  |  |
| O=C(Nc1ccccn1)OCCC1c2cccc(F)c2C(=O)N1Cc1ccc(F)cc1 (stereo not drawn) [Compound 17, Pyridin-2-yl-carbamic acid 2-[4-fluoro-2-(4-fluoro-benzyl)-3-oxo-2,3-dihydro-1H-isoindol-1-yl]-ethyl ester] | 23.8 |  |  |
| O=C(CCC1c2c(F)ccc(F)c2C(=O)N1Cc1ccc(F)cc1)Nc1ccc(C(F)(F)F)cn1 (stereo not drawn) [Compound 18, 3-[4,7-Difluoro-2-(4-fluoro-benzyl)-3-oxo-2,3-dihydro-1H-isoindol-1-yl]-N-(5-trifluoromethyl-pyridin-2-yl)-propionamide] | 95 | 2000 | 46 |
| COc1ccc(CN2C(=O)c3ccccc3C2COC(=O)Nc2ccccn2)cc1 (stereo not drawn) [Compound 19, Pyridin-2-yl-carbamic acid 2-(4-methoxy-benzyl)-3-oxo-2,3-dihydro-1H-isoindol-1-ylmethyl ester] | 115 | 4800 | 70 |
| O=C(CCC1c2c(F)ccc(F)c2C(=O)N1Cc1ccc(F)cc1)Nc1ccc(C(=O)O)cn1 (stereo not drawn) [Compound 20, 6-{3-[4,7-Difluoro-2-(4-fluoro-benzyl)-3-oxo-2,3-dihydro-1H-isoindol-1-yl]-propionylamino}-nicotinic acid] | 302 | 203 | 0.65 |
| CCOC(=O)c1csc(NC(=O)CCC2c3c(F)ccc(F)c3C(=O)N2Cc2ccc(F)cc2)n1 (stereo not drawn) [Compound 21, 2-{3-[4,7-Difluoro-2-(4-fluoro-benzyl)-3-oxo-2,3-dihydro-1H-isoindol-1-yl]-propionylamino}thiazole-4-carboxylic acid ethyl ester] | 94.4 | 3100 | 26.6 |
| O=C(O)Cc1csc(NC(=O)CCC2c3c(F)ccc(F)c3C(=O)N2Cc2ccc(F)cc2)n1 (stereo not drawn) [Compound 22, (2-{3-[4,7-Difluoro-2-(4-fluoro-benzyl)-3-oxo-2,3-dihydro-1H-isoindol-1-yl]-propionylamino}-thiazol-4-yl)-acetic acid] | 73.7 | 21000 | 188 |
| CCOC(=O)c1ccnc(NC(=O)CCC2c3c(F)cccc3C(=O)N2Cc2ccc(F)cc2)c1 (stereo not drawn) [Compound 23, 2-{3-[7-Fluoro-2-(4-fluoro-benzyl)-3-oxo-2,3-dihydro-1H-isoindol-1-yl]-propionylamino}-isonicotinic acid ethyl ester] | 30.6 |  |  |
| COc1ccc(CN2C(=O)c3ccccc3C2CNC(=O)Nc2ccccn2)cc1 (stereo not drawn) [Compound 24, 1-[2-(4-Methoxy-benzyl)-3-oxo-2,3-dihydro-1H-isoindol-1-ylmethyl]-3-pyridin-2-yl-urea] | 4.39 |  |  |
| O=C(CCC1c2c(F)ccc(F)c2C(=O)N1Cc1ccc(F)cc1)Nc1nc(C(=O)O)cs1 (stereo not drawn) [Compound 25, 2-{3-[4,7-Difluoro-2-(4-fluoro-benzyl)-3-oxo-2,3-dihydro-1H-isoindol-1-yl]-propionylamino}-thiazole-4-carboxylic acid] | 72.5 |  |  |
| COC(=O)c1ccc(NC(=O)CCC2c3c(F)cccc3C(=O)N2Cc2ccc(F)cc2)nc1 (stereo not drawn) [Compound 26, 6-{3-[7-Fluoro-2-(4-fluoro-benzyl)-3-oxo-2,3-dihydro-1H-isoindol-1-yl]-propionylamino}-nicotinic acid methyl ester] | 173 | 25 | 0.46 |
| O=C(CCC1c2c(F)cccc2C(=O)N1Cc1ccc(F)cc1)Nc1ncc(Br)s1 (stereo not drawn) [Compound 27, N-(5-Bromo-thiazol-2-yl)-3-[7-fluoro-2-(4-fluoro-benzyl)-3-oxo-2,3-dihydro-1H-isoindol-1-yl]-propionamide] | 65 | 40000 |  |
| O=C(CCC1c2c(F)cccc2C(=O)N1Cc1ccc(F)cc1)Nc1ccc2ccccc2n1 (stereo not drawn) [Compound 28, 3-[7-Fluoro-2-(4-fluoro-benzyl)-3-oxo-2,3-dihydro-1H-isoindol-1-yl]-N-quinolin-2-yl-propionamide] | 120 | 130 | 6.3 |
| O=C(CCC1c2c(F)cccc2C(=O)N1Cc1ccc(F)cc1)Nc1cc2ccccc2cn1 (stereo not drawn) [Compound 29, 3-[7-Fluoro-2-(4-fluoro-benzyl)-3-oxo-2,3-dihydro-1H-isoindol-1-yl]-N-isoquinolin-3-yl-propionamide] | 212 | 46 | 0.32 |
| COCOCc1ccc(NC(=O)CCC2c3c(F)cccc3C(=O)N2Cc2ccc(F)cc2)nc1 (stereo not drawn) [Compound 30, 3-[7-Fluoro-2-(4-fluoro-benzyl)-3-oxo-2,3-dihydro-1H-isoindol-1-yl]-N-(5methoxymethoxymethyl-pyridin-2-yl)-propionamide] | 175 | 230 | 1.2 |
